Experimental data as given in PubChem BioAssay AID1259407 (Chemical Carcinogenesis Research Information System (CCRIS), 2018).
Activity calls are given as the source filed them. The rule behind the calls is not given here.

System: CCRIS mutagenicity, Ames/micronucleus/aberration tests
Test: CCRIS mutagenicity studies
Conditions: Method: PREINCUBATION

Measured: mutagenic call

CCOc1cc(C=O)ccc1O
inactive: Test System: AMES SALMONELLA TYPHIMURIUM, Strain/Indicator: TA97, Metabolic Activation: NONE inactive; negative | Test System: AMES SALMONELLA TYPHIMURIUM, Strain/Indicator: TA97, Metabolic Activation: RAT, LIVER, S-9, AROCLOR 1254 inactive; negative | Test System: AMES SALMONELLA TYPHIMURIUM, Strain/Indicator: TA98, Metabolic Activation: NONE inactive; negative | Test System: AMES SALMONELLA TYPHIMURIUM, Strain/Indicator: TA98, Metabolic Activation: RAT, LIVER, S-9, PHENOBARBITAL AND BETA-NAPHTHOFLAVONE inactive; negative | Test System: AMES SALMONELLA TYPHIMURIUM, Strain/Indicator: TA100, Metabolic Activation: NONE inactive; negative | Test System: AMES SALMONELLA TYPHIMURIUM, Strain/Indicator: TA100, Metabolic Activation: RAT, LIVER, S-9, PHENOBARBITAL AND BETA-NAPHTHOFLAVONE inactive; negative | Test System: AMES SALMONELLA TYPHIMURIUM, Strain/Indicator: TA102, Metabolic Activation: NONE inactive; negative | Test System: AMES SALMONELLA TYPHIMURIUM, Strain/Indicator: TA102, Metabolic Activation: RAT, LIVER, S-9, AROCLOR 1254 inactive; negative | Test System: AMES SALMONELLA TYPHIMURIUM, Strain/Indicator: TA102, Metabolic Activation: RAT, LIVER, S-9, PHENOBARBITAL AND BETA-NAPHTHOFLAVONE inactive; negative | Test System: AMES SALMONELLA TYPHIMURIUM, Strain/Indicator: TA104, Metabolic Activation: NONE inactive; negative | Test System: AMES SALMONELLA TYPHIMURIUM, Strain/Indicator: TA104, Metabolic Activation: RAT, LIVER, S-9, PHENOBARBITAL AND BETA-NAPHTHOFLAVONE inactive; negative | Test System: AMES SALMONELLA TYPHIMURIUM, Strain/Indicator: TA1535, Metabolic Activation: NONE inactive; negative | Test System: AMES SALMONELLA TYPHIMURIUM, Strain/Indicator: TA1535, Metabolic Activation: RAT, LIVER, S-9, PHENOBARBITAL AND BETA-NAPHTHOFLAVONE inactive; negative | Test System: AMES SALMONELLA TYPHIMURIUM, Strain/Indicator: TA1537, Metabolic Activation: NONE inactive; negative | Test System: AMES SALMONELLA TYPHIMURIUM, Strain/Indicator: TA1537, Metabolic Activation: RAT, LIVER, S-9, PHENOBARBITAL AND BETA-NAPHTHOFLAVONE inactive; negative | Test System: E. COLI, Strain/Indicator: WP2UVRA/PKM101, Metabolic Activation: NONE inactive; negative | Test System: E. COLI, Strain/Indicator: WP2UVRA/PKM101, Metabolic Activation: RAT, LIVER, S-9, PHENOBARBITAL AND BETA-NAPHTHOFLAVONE inactive; negative | Test System: E. COLI, Strain/Indicator: WP2UVRA, Metabolic Activation: NONE inactive; negative | Test System: E. COLI, Strain/Indicator: WP2UVRA, Metabolic Activation: RAT, LIVER, S-9, PHENOBARBITAL AND BETA-NAPHTHOFLAVONE inactive; negative
